Results: patent US10959993B2, “Combination of Bcl-2 inhibitor and MEK inhibitor for the treatment of cancer” (Genentech, Inc., priority 2015, dated 2021)
Values belong to the molecule of their own block, whether it stands above or below them.

Columns and labels:
OCI-AML3/Luc/GFP cells = test: OCI-AML3/Luc/GFP AML model in NSG mice; assay type: in vivo; settings: compared to controls, more prominently in cobimetinib single agent and co-treated mice
Description: (§1) OCI-AML3/Luc/GFP cells (1×10^6 per mouse) were injected intravenously into NSG mice. (FIG. 5A) The luciferase intensity was quantified by serial bioluminescence imaging from 8 representative mice from 4 groups at week 5 post injection. (FIG. 5B) Overall survival rate in each group was estimated by the Kaplan-Meier method. 1×10^6 MOLM13-luci-GFP cells were injected into NSGS mice. Leukemia engraftment was confirmed on day 3 using Bioluminescence imaging (BLI). Mice were orally dosed daily with cobimetinib (10 mg/kg) or venetoclax (100 mg/kg) or in combination for 14 days. Luciferase intensity was shown on day 17 (FIG. 5C). Human CD45 engraftment in BM and spleen was determined by CyTOF. (FIG. 5D). The viable cell count was measured using Vi-Cell. (FIG. 5E). * *P: 0.01, ***P: 0.001.
(§2) We next investigated signaling patterns and Bcl-2 family protein expression in AML stem/progenitor cells using a 34-antibody panel and time-of-flight mass cytometry (CyTOF). CyTOF is a variation of flow cytometry in which antibodies are labeled with heavy metal ion tags rather than fluorochromes. Readout is by time-of-flight mass spectrometry. This allows for the combination of many more antibody specificities in single samples, without significant spillover between channels. […]

Bcl-2:BIM complex = target: T1, Bcl-2:BIM complex (Homo sapiens, UniProt P10415); test: MSD ELISA of Bcl-2:BIM complex; assay type: cell-based; settings: 1×IC50, 4 hrs, preliminary MSD data
T1 construct: endogenous in cells; host or cells: AML cell lines (OCI-AML3 is the only one named for this read-out)
T1 sequence (P10415 whole entry, one chain of several): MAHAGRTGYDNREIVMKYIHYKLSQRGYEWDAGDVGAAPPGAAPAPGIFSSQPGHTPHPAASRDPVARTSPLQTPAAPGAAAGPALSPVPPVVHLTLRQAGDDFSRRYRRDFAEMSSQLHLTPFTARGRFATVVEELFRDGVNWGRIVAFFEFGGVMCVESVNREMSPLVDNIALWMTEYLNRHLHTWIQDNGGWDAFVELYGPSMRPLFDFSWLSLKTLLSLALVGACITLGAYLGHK
Description: (§3) Representative proteins that are differentially expressed between combination-sensitive and combination-resistant cells were shown. (FIG. 3E) The Bcl-2:BIM complex was measured by the MSD ELISA assay in AML cell lines, untreated, treated with venetoclax alone, treated with cobimetinib alone, or treated with cobimetinib/venetoclax at 1×IC50 values for 4 hrs.
(§4) Ongoing analysis of pharmacodynamic markers include transcriptome assessment by RNA sequencing, functional proteomics by reverse phase protein array (RPPA), and quantification of Bcl-2:BIM and MCL-1:BIM complexes using the electrochemiluminescent ELISA assay (Meso Scale Discovery, MSD-ELISA). RPPA is a high-throughput technology that performs protein assays on thousands of samples simultaneously. This protein array platform measures levels of protein expression, as well as protein modifications such as phosphorylation.
Representative proteins that are differentially expressed in sensitive and resistant cell lines to the combination. (FIGS. 3A, 3B, 3C, and 3D). […] (FIG. 3E).

[1] = system: AML stem/progenitor cells from primary AML; test: Mass cytometry (CyTOF) of intracellular signaling proteins; assay type: cell-based
Description: Mononuclear cells from primary AML were treated with cobimetinib at 1.0 μM for 2 hrs followed by 10 minutes plus or minus stimulation with G-CSF (100 ng/ml). The SPADE tree was generated using markers including CD7, CD117, CD123, CD64, CD34, CD26, CD45, TIM3, CD33, CD19, CD56, CD2, CD15, CD41, CD38, CD166, CD3, CD90, CD11b, CD135 and HLA-DR. FIG. 4A depicts representative markers from among those markers tested. The grey-scale color represents the expression levels of each indicated protein. (FIG. 4A) Bcl-2 family members at baseline in the gated stem/progenitor AML cell populations (AML4295468: CD34+CD38+CD123+CD33+; AML 4366894: CD34+CD38-CD123+CD33+). (FIG. 4B) The median intensity of each protein in the gated cell populations mentioned above. (FIG. 4C) The intracellular signaling protein activation in the gated populations mentioned above.
We next investigated signaling patterns and Bcl-2 family protein expression in AML stem/progenitor cells using a 34-antibody panel and time-of-flight mass cytometry (CyTOF). CyTOF is a variation of flow cytometry in which antibodies are labeled with heavy metal ion tags rather than fluorochromes. Readout is by time-of-flight mass spectrometry. This allows for the combination of many more antibody specificities in single samples, without significant spillover between channels. […] (FIG. 4A). […] To test the efficacy of both compounds in vivo, we injected NSG mice with genetically engineered OCI-AML3/Luc/GFP cells. […] (FIGS. 5A and 5B). To further explore the anti-leukemia efficacy of both compounds, we injected NSGS mice with genetically engineered […] cells.

AML cell lines [2] = test: Reverse phase protein array (RPPA) of sensitive v. resistant cell lines; assay type: cell-based; parameters: p16INK4a Mean. Res / p16INK4a Mean. Sens / p53 Mean. Res / p53 Mean. Sens / Bax Mean. Res / Bax Mean. Sens / Bim Mean. Res / Bim Mean. Sens / bRaf (T401) Mean. Res / bRaf (T401) Mean. Sens / Bcl-2 Mean. Res / Bcl-2 Mean. Sens: unit not given here
Description: as §3, §4

AML cell lines [3] = test: CellTiter-Glo in vitro cytotoxicity / growth inhibition, 72 hrs; assay type: cell-based; settings: MOLM14, OCI-AML3, NB4 and THP1
Description: (FIG. 1A) The AML cell lines were treated with cobimetinib or venetoclax at 0.001, 0.01, 0.1 and 1.0 μM for 72 hrs. Calcusyn software was used to calculate the IC50 values and combination index (CI) based on the luminescent intensity that correlated with number of viable cells determined by the CellTiter-Glo assay.
The activity of 4-(4-{[2-(4-chlorophenyl)-4,4-dimethylcyclohex-1-en-1-yl]methyl}piperazin-1-yl)-N-({3-nitro-4-[(tetrahydro-2H-pyran-4-ylmethyl)amino]phenyl}sulfonyl)-2-(1H-pyrrolo[2,3-b]pyridin-5-yloxy)benzamide (ABT-199, or venetoclax) and [3,4-Difluoro-2-(2-fluoro-4-iodoanilino)phenyl]{3-hydroxy-3-[(2S)-piperidin-2-yl]azetidin-1-yl}methanone (cobimetinib) was examined in a panel of myeloid leukemia cell lines with diverse genetic alterations.

MOLM13-luci-GFP cells = test: MOLM13-luci-GFP AML model in NSGS mice; assay type: in vivo; settings: cobimetinib 10 mg/kg, venetoclax 100 mg/kg orally daily for 14 days, compared to controls, more prominently in venetoclax and co-treated mice
Description: as §1, §2

primary AML blasts = test: Long-term culture of primary AML blasts: apoptosis and growth inhibition by flow cytometry; assay type: cell-based; settings: AML 4366894
Description: (FIG. 2A) Primary AML peripheral blood mononuclear cells were cultured in serum-Free Expansion Medium (SFEM) supplemented with BIT 9500 Serum Substitute and cytokines including stem cell factor (100 ng/ml), Flt3 ligand (50 ng/ml), IL-3 (20 ng/ml) and G-CSF (20 ng/ml) as well as SRI (1 μM). After culture for 5 days, cells were stained with CD45-PE, Annexin-V-APC and DAPI−. The apoptotic leukemia blasts (CD45dimAnnexin-V+) were determined by flow cytometry. Results were expressed as percentage of specific apoptosis calculated by the formula: 100×(% apoptosis of treated cells−% apoptosis of control cells)/(100−% apoptosis of control cells), or % growth inhibition of control using the viable cell counts determined by Annexin-/DAPI. […] MNCs isolated from patients with AML (100,000) or healthy donors (50,000) were plated in methylcellulose medium (1 mL/well; Cat. 04435; [sequence] Technologies Inc., Vancouver, BC, Canada) in triplicate per condition. Colonies were scored after 2 weeks of culture.

[4] = cell lines resistant to cobimetinib
[5] = cell lines sensitive to cobimetinib
[6] = cell lines resistant to venetoclax
[7] = cell lines sensitive to venetoclax

- Bcl-2:BIM complex (Bcl-2:BIM complex; AML cell lines): but not cobimetinib disrupted
- Bcl-2:BIM complex (Bcl-2:BIM complex; OCI-AML3 cells): accumulated
Structure (SMILES): O=C(c1ccc(F)c(F)c1Nc1ccc(I)cc1F)N1CC(O)([C@@H]2CCCCN2)C1 [cobimetinib, [3,4-difluoro-2-(2-fluoro-4-iodoanilino)phenyl]{3-hydroxy-3-[(2S)-piperidin-2-yl]azetidin-1-yl}methanone]
- leukemia burden by bioluminescent imaging (BLI) (OCI-AML3/Luc/GFP cells): significantly reduced leukemia burden
- G-CSF-evoked p-STAT3/5 ([1]; AML 4295468, 1.0 μM for 2 hrs): only slightly reduced
- SCF-induced p-AKT ([1]; AML 4295468, 1.0 μM for 2 hrs): only slightly reduced
- basal and G-CSF- or SCF-stimulated p-ERK ([1]; AML 4295468, 1.0 μM for 2 hrs): efficiently down-regulated
- G-CSF-induced p-STAT3/5 ([1]; AML 4366894, 1.0 μM for 2 hrs): not significantly changed
- p-ERK ([1]; AML 4366894, 1.0 μM for 2 hrs): also reduced
- phosphorylation of STATS pathway ([1]; primary AML, 1.0 μM for 2 hrs): increased phosphorylation
- Bax Mean. Res (AML cell lines [2]; [4]): 1.010
- Bim Mean. Res (AML cell lines [2]; [4]): 0.893
- ERK 1/2 (T202/Y204) Mean. Res (AML cell lines [2]; [4]): 1.073
- FLT3 (Y589/591) Mean. Res (AML cell lines [2]; [4]): 0.948
- PTEN (S380) Mean. Res (AML cell lines [2]; [4]): 1.049
- PTEN Mean. Res (AML cell lines [2]; [4]): 1.013
- RSK3 (T356/S360) Mean. Res (AML cell lines [2]; [4]): 0.859
- S6 (S235/236) Mean. Res (AML cell lines [2]; [4]): 0.748
- p16INK4a Mean. Res (AML cell lines [2]; [4]): 2.220
- p38MAP (T180/Y182) Mean. Res (AML cell lines [2]; [4]): 0.983
- p53 Mean. Res (AML cell lines [2]; [4]): 0.939
- Bax Mean. Sens (AML cell lines [2]; [5]): 1.307
- Bim Mean. Sens (AML cell lines [2]; [5]): 1.175
- ERK 1/2 (T202/Y204) Mean. Sens (AML cell lines [2]; [5]): 1.988
- FLT3 (Y589/591) Mean. Sens (AML cell lines [2]; [5]): 1.256
- PTEN (S380) Mean. Sens (AML cell lines [2]; [5]): 1.335
- PTEN Mean. Sens (AML cell lines [2]; [5]): 1.361
- RSK3 (T356/S360) Mean. Sens (AML cell lines [2]; [5]): 1.495
- S6 (S235/236) Mean. Sens (AML cell lines [2]; [5]): 1.174
- p16INK4a Mean. Sens (AML cell lines [2]; [5]): 1.184
- p38MAP (T180/Y182) Mean. Sens (AML cell lines [2]; [5]): 1.275
- p53 Mean. Sens (AML cell lines [2]; [5]): 1.373

Structure (SMILES): CC1(C)CCC(CN2CCN(c3ccc(C(=O)NS(=O)(=O)c4ccc(NCC5CCOCC5)c([N+](=O)[O-])c4)c(Oc4cnc5[nH]ccc5c4)c3)CC2)=C(c2ccc(Cl)cc2)C1 [venetoclax, 4-(4-{[2-(4-chlorophenyl)-4,4-dimethylcyclohex-1-en-1-yl]methyl}piperazin-1-yl)-N-({3-nitro-4-[(tetrahydro-2H-pyran-4-ylmethyl)amino]phenyl}sulfonyl)-2-(1H-pyrrolo[2,3-b]pyridin-5-yloxy)benzamide]
- Bcl-2:BIM complex (Bcl-2:BIM complex; AML cell lines): disrupted by venetoclax in most cell lines
- Bax Mean. Res (AML cell lines [2]; [6]): 0.958
- Bcl-2 Mean. Res (AML cell lines [2]; [6]): 0.817
- Bim Mean. Res (AML cell lines [2]; [6]): 1.143
- PTEN (S380) Mean. Res (AML cell lines [2]; [6]): 0.839
- PTEN Mean. Res (AML cell lines [2]; [6]): 0.704
- S6 (S240/244) Mean. Res (AML cell lines [2]; [6]): 1.918
- bRaf (T401) Mean. Res (AML cell lines [2]; [6]): 1.263
- p16INK4a Mean. Res (AML cell lines [2]; [6]): 1.989
- Bax Mean. Sens (AML cell lines [2]; [7]): 1.227
- Bcl-2 Mean. Sens (AML cell lines [2]; [7]): 1.081
- Bim Mean. Sens (AML cell lines [2]; [7]): 0.811
- PTEN (S380) Mean. Sens (AML cell lines [2]; [7]): 1.369
- PTEN Mean. Sens (AML cell lines [2]; [7]): 1.495
- S6 (S240/244) Mean. Sens (AML cell lines [2]; [7]): 1.571
- bRaf (T401) Mean. Sens (AML cell lines [2]; [7]): 0.927
- p16INK4a Mean. Sens (AML cell lines [2]; [7]): 1.593
- sensitivity of cell lines to single agent (AML cell lines [3]): resistant
- leukemia burden by bioluminescent imaging (MOLM13-luci-GFP cells): significantly reduced leukemia burden
- sensitivity of primary AML sample (primary AML blasts): resistant
